Reference: patent publication EP0410278A1, “Renin inhibiting aminooligohydroxy-derivatives” (HOECHST AKTIENGESELLSCHAFT, priority 1989, dated 1991)

Test system: Rhesusaffen
Test: In vivo test in furosemide-pretreated, anaesthetised rhesus monkeys: blood pressure, heart rate, plasma renin activity
Settings: 2 mg/kg i.d. (in 0,1 n Zitronensäure 2 mg/ml); for Änderung PRA [%]: Plasma-Renin-Aktivität
Text: Renin-Hemmer bewirken an salzverarmten Tieren eine Blutdrucksenkung. Da sich menschliches Renin von dem Renin anderer Spezies unterscheidet, werden zum in-vivo-Test von Renin-Hemmern Primaten, wie zum Beispiel Rhesus-Affen, herangezogen.
Primaten-Renin und Human-Renin sind in ihrer Sequenz weitgehend homolog. Durch i.v. Injektion von Furosemid wird eine endogene Renin-Ausschüttung angeregt. Anschließend werden die Testverbindungen verabreicht und ihre Wirkung auf Blutdruck und Herzfrequenz wird gemessen.
6 Rhesusaffen wurden an 6 aufeinanderfolgenden Tagen mit 10 mg/kg·d Furosemid oral vorbehandelt. Am 7. Tag wurden etwa 30 Minuten vor Versuchsbeginn weitere 10 mg/kg Furosemid i.v. verabreicht. Anschließend wurde die Anästhesie mit 20 mg/kg Ketamin i.m. eingeleitet und mit 40 mg/kg Pentobarbiton i.v. fortgesetzt. Ein Seitenarm der Femoralarterie wurde freipräpariert und zur Blutdruckmessung mittels eines Blutdruck-Wandlers (P 23 ID) kanuliert. Blutproben zur Bestimmung der Plasma-Renin-Aktivität wurden über eine Braunüle in der Saphena-Vene abgenommen.
Die Titelverbindung des Beispiels 2 zeigt folgendes Ergebnis: 2 mg/kg i.d. (in 0,1 n Zitronensäure 2 mg/ml)

## CC(C)(C)S(=O)(=O)CC(Cc1ccccc1)C(=O)NC(Cc1c[nH]cn1)C(=O)NC(CC1CCCCC1)C(O)C(O)C(O)C(O)CO [Beispiel 2, (2(S)-Benzyl,3-t-butylsulfonyl)propionyl-His-[(D)-Manno-Pentol]]
T 1 min
  Blutdruck-Änderung [%]: -0,72%
  Puls-Änderung [%]: -1,16%
T 3 min
  Blutdruck-Änderung [%]: -8,21%
  Puls-Änderung [%]: -1,61%
T 5 min
  Blutdruck-Änderung [%]: -11,53%
  Puls-Änderung [%]: -2,42%
T 10 min
  Blutdruck-Änderung [%]: -11,82%
  Puls-Änderung [%]: -2,51%
T 15 min
  Blutdruck-Änderung [%]: -12,68%
  Puls-Änderung [%]: -3,49%
  Änderung PRA [%]: -20%
T 20 min
  Blutdruck-Änderung [%]: -13,48%
  Puls-Änderung [%]: -1,97%
T 30 min
  Blutdruck-Änderung [%]: -16,43%
  Puls-Änderung [%]: -1,61%
  Änderung PRA [%]: -62%
T 45 min
  Blutdruck-Änderung [%]: -12,82%
  Puls-Änderung [%]: +0,09%
  Änderung PRA [%]: -53%
T 60 min
  Blutdruck-Änderung [%]: -13,98%
  Puls-Änderung [%]: -0,09%
  Änderung PRA [%]: -58%
T 75 min
  Puls-Änderung [%]: +1,16%
T 90 min
  Puls-Änderung [%]: +3,04%
  Änderung PRA [%]: -51%
T 120 min
  Änderung PRA [%]: -47%
